Reference: ChEMBL document CHEMBL1909046, “DrugMatrix in vitro pharmacology data”
Where a SMILES comes first, the peptide text is derived from it. Bridges are numbered along the chain shown (N, C = ends). [ ]: non-standard residue; d: D form. The star is where a group is joined. Threoninol(2S,3R) = C[C@@H](O)[C@H](CO)N*

Tests used:
[1] = target: T1, Muscarinic acetylcholine receptor M4 (Homo sapiens, UniProt P08173); format: cell membranes, CHO-K1, Membrane; details: cho-k1; further: in other assays of this panel Not Active means under 50% inhibition at 10 µM
T1 sequence (P08173 whole entry): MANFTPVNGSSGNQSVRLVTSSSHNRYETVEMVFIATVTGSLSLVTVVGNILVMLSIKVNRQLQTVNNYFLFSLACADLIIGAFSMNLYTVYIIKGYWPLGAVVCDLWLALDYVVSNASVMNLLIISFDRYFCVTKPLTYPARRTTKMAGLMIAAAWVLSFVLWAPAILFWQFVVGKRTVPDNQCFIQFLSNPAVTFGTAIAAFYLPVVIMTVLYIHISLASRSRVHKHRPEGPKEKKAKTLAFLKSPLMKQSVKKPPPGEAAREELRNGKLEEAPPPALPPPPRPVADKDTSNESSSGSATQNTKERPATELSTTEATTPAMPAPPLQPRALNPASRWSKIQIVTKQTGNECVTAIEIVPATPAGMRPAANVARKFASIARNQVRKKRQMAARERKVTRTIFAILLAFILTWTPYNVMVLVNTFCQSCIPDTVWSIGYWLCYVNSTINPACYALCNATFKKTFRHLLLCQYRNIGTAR

[2] = DRUGMATRIX: Platelet-Derived Growth Factor (PDGF) radioligand binding (ligand: [125I] PDGF); format: cell-based; details: nih3t3; Not Active = under 50% inhibition at 10 µM
[3] = target: C-C chemokine receptor type 5 (Homo sapiens, UniProt P51681); format: cell membranes, HEK293, Membrane; details: hek293; further: in other assays of this panel Not Active means under 50% inhibition at 10 µM
Sequence of C-C chemokine receptor type 5 (P51681 whole entry): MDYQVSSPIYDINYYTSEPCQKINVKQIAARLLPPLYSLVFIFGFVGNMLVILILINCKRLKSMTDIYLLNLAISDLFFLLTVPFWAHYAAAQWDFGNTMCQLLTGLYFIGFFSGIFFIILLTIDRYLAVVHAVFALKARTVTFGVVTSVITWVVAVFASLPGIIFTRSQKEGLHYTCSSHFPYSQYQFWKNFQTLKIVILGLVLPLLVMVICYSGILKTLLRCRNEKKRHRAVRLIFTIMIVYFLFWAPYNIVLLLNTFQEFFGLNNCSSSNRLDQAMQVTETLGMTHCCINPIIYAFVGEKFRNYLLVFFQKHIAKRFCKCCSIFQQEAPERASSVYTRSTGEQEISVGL

[4] = DRUGMATRIX: Glutamate, AMPA radioligand binding (ligand: [3H] AMPA); format: cell membranes, Rattus norvegicus, Wistar, Cerebral cortex, Membrane; details: Not Active = under 50% inhibition at 10 µM
[5] = DRUGMATRIX: GABAA, Flunitrazepam, Central radioligand binding (ligand: [3H] Flunitrazepam); format: cell membranes, Rattus norvegicus, Wistar, Brain, Membrane; details: Not Active = under 50% inhibition at 10 µM
Estrogen receptor beta = Estrogen receptor beta (Homo sapiens, UniProt Q92731); details: sf9; further: in other assays of this panel Not Active means under 50% inhibition at 10 µM
Sequence of Estrogen receptor beta (Q92731 whole entry): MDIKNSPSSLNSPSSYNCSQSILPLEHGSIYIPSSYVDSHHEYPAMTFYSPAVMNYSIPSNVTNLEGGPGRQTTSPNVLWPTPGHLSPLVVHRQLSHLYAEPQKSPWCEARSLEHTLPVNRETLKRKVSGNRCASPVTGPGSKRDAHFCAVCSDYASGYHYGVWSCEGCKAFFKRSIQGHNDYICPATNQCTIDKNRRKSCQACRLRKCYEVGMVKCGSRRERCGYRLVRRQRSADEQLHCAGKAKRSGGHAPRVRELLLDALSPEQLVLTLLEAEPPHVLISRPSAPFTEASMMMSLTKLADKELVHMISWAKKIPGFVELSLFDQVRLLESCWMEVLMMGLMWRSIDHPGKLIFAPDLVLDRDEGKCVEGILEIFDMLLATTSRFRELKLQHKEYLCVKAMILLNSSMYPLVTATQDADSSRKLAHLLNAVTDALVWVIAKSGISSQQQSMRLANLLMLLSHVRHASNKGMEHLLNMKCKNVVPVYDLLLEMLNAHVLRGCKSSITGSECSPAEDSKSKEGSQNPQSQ

[6] = DRUGMATRIX: Glutamate, Kainate radioligand binding (ligand: [3H] Kainic acid); format: cell membranes, Rattus norvegicus, Wistar, Brain, Membrane; details: Not Active = under 50% inhibition at 10 µM
[7] = target: C-C chemokine receptor type 2 (Homo sapiens, UniProt P41597); format: cell membranes, CHO-K1, Membrane; further: in other assays of this panel Not Active means under 50% inhibition at 10 µM
Sequence of C-C chemokine receptor type 2 (P41597 whole entry): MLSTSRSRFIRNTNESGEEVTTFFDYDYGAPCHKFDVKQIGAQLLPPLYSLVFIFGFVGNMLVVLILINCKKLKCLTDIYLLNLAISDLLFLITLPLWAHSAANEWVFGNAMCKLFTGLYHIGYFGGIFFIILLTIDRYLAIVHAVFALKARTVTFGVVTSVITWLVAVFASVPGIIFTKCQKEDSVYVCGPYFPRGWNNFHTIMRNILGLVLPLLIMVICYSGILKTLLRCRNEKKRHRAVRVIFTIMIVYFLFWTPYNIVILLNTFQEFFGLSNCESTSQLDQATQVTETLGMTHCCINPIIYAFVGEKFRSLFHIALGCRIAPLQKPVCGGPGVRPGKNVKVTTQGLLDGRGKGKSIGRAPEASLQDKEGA

| Structure (SMILES) | IC50 [1] | IC50 [2] | Ki [2] | IC50 [3] | IC50 [4] | Ki [4] | IC50 [5] | Ki [5] | IC50 (Estrogen receptor beta) | IC50 [6] | Ki [6] | IC50 ([7]; cho-k1) | IC50 ([7]; read-out: IC50) [µM] | Ki ([7]; read-out: Ki) [µM] | Ki [1] | Ki [3] | Ki (Estrogen receptor beta) | Ki ([7]; cho-k1) |
| --- | --- | --- | --- | --- | --- | --- | --- | --- | --- | --- | --- | --- | --- | --- | --- | --- | --- | --- |
| COc1ccccc1C(=O)N1CCC(Cc2ccccc2)CC1 | Not Active | Not Active | Not Active | Not Active | Not Active | Not Active | Not Active | Not Active | Not Active | Not Active | Not Active | Not Active | – | – | – | – | – | – |
| Cc1ccccc1C(=O)N1CCC(Cc2ccccc2)CC1 | Not Active | Not Active | Not Active | Not Active | Not Active | Not Active | Not Active | Not Active | Not Active | Not Active | Not Active | Not Active | – | – | – | – | – | – |
| O=C1CC[C@H](N2C(=O)c3ccccc3C2=O)C(=O)N1 | Not Active | Not Active | Not Active | Not Active | Not Active | Not Active | Not Active | Not Active | Not Active | Not Active | Not Active | Not Active | – | – | – | – | – | – |
| N=C(Nc1ccccc1)Nc1ccccc1 | Not Active | Not Active | Not Active | Not Active | Not Active | Not Active | Not Active | Not Active | Not Active | Not Active | Not Active | Not Active | – | – | – | – | – | – |
| C[C@@H](O)[C@H](CO)NC(=O)[C@@H]1CSSC[C@H](NC(=O)[C@H](N)Cc2ccccc2)C(=O)N[C@@H](Cc2ccccc2)C(=O)N[C@H](Cc2c[nH]c3ccccc23)C(=O)N[C@@H](CCCCN)C(=O)N[C@@H]([C@@H](C)O)C(=O)N1 (H-[dF]CF[dW]KTC-{Threoninol(2S,3R)}; disulfide 2-7) | Not Active | Not Active | Not Active | Not Active | Not Active | Not Active | Not Active | Not Active | Not Active | Not Active | Not Active | Not Active | – | – | – | – | – | – |
| S=C=Nc1cccc2ccccc12 [1-NAPHTHYLISOTHIOCYANATE] | Not Active | Not Active | Not Active | Not Active | Not Active | Not Active | Not Active | Not Active | Not Active | Not Active | Not Active | – | 6.7 | 2.59 | – | – | – | – |
| C[C@](O)(CS(=O)(=O)c1ccc(F)cc1)C(=O)Nc1ccc(C#N)c(C(F)(F)F)c1 [(R)-BICALUTAMIDE] | Not Active | Not Active | Not Active | Not Active | Not Active | Not Active | Not Active | Not Active | Not Active | Not Active | Not Active | Not Active | – | – | – | – | – | – |
| CCCC(=O)Nc1ccc(OCC(O)CNC(C)C)c(C(C)=O)c1 (stereo not drawn) [ACEBUTOLOL] | Not Active | Not Active | Not Active | Not Active | Not Active | Not Active | Not Active | Not Active | Not Active | Not Active | Not Active | Not Active | – | – | – | – | – | – |
| CC(=O)Nc1ccc(O)cc1 [ACETAMINOPHEN] | Not Active | Not Active | Not Active | Not Active | Not Active | Not Active | Not Active | Not Active | Not Active | Not Active | Not Active | Not Active | – | – | – | – | – | – |
| COc1cc2c(c3oc(=O)c4c(c13)CCC4=O)[C@@H]1C=CO[C@@H]1O2 [AFLATOXIN] | Not Active | Not Active | Not Active | Not Active | Not Active | Not Active | Not Active | Not Active | Not Active | Not Active | Not Active | Not Active | – | – | Not Active | Not Active | Not Active | Not Active |
| N=C(N)NC(=O)c1nc(Cl)c(N)nc1N [AMILORIDE] | Not Active | Not Active | Not Active | Not Active | Not Active | Not Active | Not Active | Not Active | Not Active | Not Active | Not Active | Not Active | – | – | – | – | – | – |
| Cc1cc(=O)n(-c2ccccc2)n1C [ANTIPYRINE] | Not Active | Not Active | Not Active | Not Active | Not Active | Not Active | Not Active | Not Active | Not Active | Not Active | Not Active | Not Active | – | – | – | – | – | – |
| CCOC(=O)[C@H](CCc1ccccc1)N[C@H]1CCc2ccccc2N(CC(=O)O)C1=O [BENAZEPRIL] | Not Active | Not Active | Not Active | Not Active | Not Active | Not Active | Not Active | Not Active | Not Active | Not Active | Not Active | Not Active | – | – | – | – | – | – |
| Nc1c(CC(=O)O)cccc1C(=O)c1ccc(Br)cc1 [BROMFENAC] | Not Active | Not Active | Not Active | Not Active | Not Active | Not Active | Not Active | Not Active | Not Active | Not Active | Not Active | Not Active | – | – | – | – | – | – |
| CCCCN1CCCCC1C(=O)Nc1c(C)cccc1C.Cl (stereo not drawn) [BUPIVACAINE HYDROCHLORIDE] | Not Active | Not Active | Not Active | Not Active | Not Active | Not Active | Not Active | Not Active | Not Active | Not Active | Not Active | Not Active | – | – | – | – | – | – |
| O=NN(CCCl)C(=O)NCCCl [CARMUSTINE] | Not Active | Not Active | Not Active | Not Active | Not Active | Not Active | Not Active | Not Active | Not Active | Not Active | Not Active | Not Active | – | – | – | – | – | – |
| CC1=C(C(=O)O)N2C(=O)[C@@H](NC(=O)[C@H](N)c3ccccc3)[C@H]2SC1 [CEPHALEXIN ANHYDROUS] | Not Active | Not Active | Not Active | Not Active | Not Active | Not Active | Not Active | Not Active | Not Active | Not Active | Not Active | Not Active | – | – | – | – | – | – |
| O=C(N[C@H](CO)[C@H](O)c1ccc([N+](=O)[O-])cc1)C(Cl)Cl [CHLORAMPHENICOL] | Not Active | Not Active | Not Active | Not Active | Not Active | Not Active | Not Active | Not Active | Not Active | Not Active | Not Active | Not Active | – | – | – | – | – | – |
| ClC(Cl)Cl [CHLOROFORM] | Not Active | Not Active | Not Active | Not Active | Not Active | Not Active | Not Active | Not Active | Not Active | Not Active | Not Active | Not Active | – | – | – | – | – | – |
